Source: US20200038417A1, “METHODS AND COMPOSITIONS FOR TREATING COGNITIVE IMPAIRMENT” (Enterin, Inc., priority 2018, published 2020)
Entries after “also recorded” stand apart in the source; their conditions may differ.

Assays:
[1] = Safety and adverse event (AE) profile, Phase 2 trial of oral squalamine (ENT-01); type: in vivo, human
Protocol: (§1) Tolerability limits included diarrhea or vomiting.
(§2) In Stage 2, 34 patients were evaluated.

[2] = tested on: patients with PD and constipation; assay: Effect on bowel function (prokinetic response, stool diary indices), Phase 2 trial; type: in vivo, human; conditions: patients with baseline ≥1 CSBM/week
Protocol: Following successful screening, all subjects underwent a 14-day run-in period where the degree of constipation was assessed through a validated daily log (Zinsmeister et al. 2013) establishing baseline CSBMs/week. Subjects with an average of <3 CSBMs/week proceeded to dosing.
as §1, §2
The primary efficacy outcome variable was whether or not a subject was a “success” or “failure”. This is an endpoint based on subject diary entries for the “fixed dose” period prior to the endpoint assessment defined as average complete stool frequency increase by 1 or more over baseline, or 3 or more complete spontaneous stools/week. The subject was deemed a “success” if s/he met one or more of the criteria listed above, otherwise the subject was deemed a “failure”. The primary analysis was based on all subjects with a baseline assessment and an assessment at the end of the “fixed-dose” period and was a comparison of the proportion of successes with 0.10 (the null hypothesis corresponding to no treatment effect).

patients with PD [3] = assay: CNS symptoms in Stage 2 (UPDRS, MMSE, PDHQ, BDI-II); type: in vivo, human; conditions: during treatment; 5 patients with hallucinations and 1 with delusions at baseline
Description: Exploratory end-points, in addition to constipation, included for example, (i) depression assessed using the Beck Depression Inventory (BDI-II) (Steer et al. 2000) and Unified Parkinson's Disease Rating Scale (UPDRS); (ii) cognition assessed using the Mini Mental State Examination (MMSE) (Palsteia et al. 2018), Unified Parkinson's Disease Rating Scale (UPDRS), and Trail Making Test (TMT); (iii) sleep and REM-behavior disorder (RBD) using a daily sleep diary, I-Button Temperature Assessment, a REM sleep behavior disorder (RBD) questionnaire (RBDQ) (Stiasny-Kolster et al. 2007), and the UPDRS; (iv) hallucinations assessed using the PD hallucinations questionnaire (PDHQ) (Papapetropoulos et al. 2008), the UPDRS, and direct questioning; (v) fatigue using the Parkinson's Disease Fatigue Scale (PFS-16) and the UPDRS; (vi) motor functions using the UPDRS; and (vii) non-motor functions using the UPDRS.
(§3) Assessments were made at baseline and at the end of the fixed dose and washout periods. Circadian system status was evaluated by continuously monitoring wrist skin temperature (Thermochron iButton DS1921H; Maxim, Dallas) following published procedures (Sarabia et al. 2008).
An exploratory analysis was done with respect to the sleep data, the body temperature data, mood, fatigue, hallucinations, cognition and other motor and non-motor symptoms of PD. […]

patients with PD [4] = assay: Circadian rhythm of wrist skin temperature (I-Button); type: in vivo, human; conditions: fixed dose vs baseline, 12 evaluable patients
Protocol: (6) I-Button Temperature Assessment. The I-Button is a small, rugged self-sufficient system that measures temperature and records the results in a protected memory section. The Thermochron I-Button DS1921H (Maxim Integrated, Dallas, Tex.) was used for skin temperature measurement. I-Buttons were programmed to sample every 10 mins., and attached to a double-sided cotton sport wrist band using Velcro, with the sensor face of the I-Button placed over the inside of the wrist, on the radial artery of the dominant hand. Subjects removed and replaced the data logger when necessary (i.e., to have a bath or shower). […] From the collected data, the mesor, amplitude, acrophase (time of peak temperature), Rayleight test (an index of interdaily stability), mean waveforms are calculated.);
as §3
Circadian rhythm of skin temperature was evaluable in 12 patients (i.e., those who had recordings that extended from baseline through washout). Circadian system functionality was evaluated by continuously monitoring wrist skin temperature using a temperature sensor (Thermochron iButton DS1921H; Maxim, Dallas, Tex.) (Sarabia et al. 2008). […]

[5] = Preclinical studies of oral squalamine (ENT-01) in rats; type: in vivo; conditions: rat, oral dosing of radioactive ENT-01, portal blood concentrations
Solubility in water = type: physicochemical; conditions: phosphate salt
αS [6] = molecular target: T1, αS (Homo sapiens, UniProt P37840); conditions: in vitro; cited from earlier work
C. elegans αS model = conditions: cited from earlier work; for formation of αS aggregates: C. elegans model of PD in vivo
αS [7] = molecular target: T1, αS; conditions: in vitro; cited from earlier work; remark: listed apart in the source
mouse models of PD = mouse models of PD (constipation due to overexpression of human αS); cited from earlier work
[8] = tested on: IPANs (intrinsic primary afferent neuron); conditions: perfusion through the lumen of isolated bowel segment from the PD mouse model; cited from earlier work
[9] = dilactate salt, single and repeat intravenous administration, alone or in combination; cited from earlier work
[10] = following systemic administration, mice, into the duodenum through the biliary tract; cited from earlier work
[11] = tested on: gastrointestinal motility; conditions: prior studies; cited from earlier work
[12] = Stage 2, 34 dosed, unrelated to ENT-01

CC(C)[C@@H](CC[C@@H](C)[C@H]1CC[C@H]2[C@@H]3[C@H](O)C[C@H]4C[C@@H](NCCCNCCCCN)CC[C@]4(C)[C@H]3CC[C@]12C)OS(=O)(=O)O (single isomer, unassigned) [squalamine (ENT-01)]
Blood in urine, Mild [1, 12]: 0 n | Loss of appetite, Mild [1, 12]: 0 n | Lower GI bleed, Severe ([1]; Stage 2, colonic diverticulosis, polyp, patient on aspirin, Plavix and naproxen, unrelated to ENT-01): 1 n | patients with worsening of hemorrhoids ([1]; both stages, 1/44 patients): 2.2% | patients with worsening of acid reflux ([1]; both stages, 2/44 patients): 4.5% | patients with flatulence ([1]; both stages, 3/44 patients): 6.8% | patients with vomiting ([1]; both stages, 3/44 patients): 6.8% | patients with dizziness ([1]; both stages, 8/44 patients): 18% | patients with abdominal pain ([1]; both stages, 11/44 patients): 32% | mean dose required for a bowel (prokinetic) response [2]: 120 mg | hallucinations and delusions improved or disappeared (patients with PD [3]): 5 of 6 | markers of circadian function (IS, RA, CFI, IV) of wrist skin temperature rhythm (patients with PD [4]): improved all markers of healthy circadian function | absorption from the intestine [5]: low | solubility in water (Solubility in water; neutral pH): weakly soluble in water | dissolution in water (Solubility in water; pH<3.5 (the pH of gastric fluid)): readily dissolves | formation of αS aggregates (αS [6]): inhibit the formation of aggregates of αS | formation of αS aggregates (C. elegans αS model): inhibit the formation of aggregates of αS | displacement of αS from membranes (αS [7]): displace αS from membranes

CC(C)[C@@H](CC[C@@H](C)[C@H]1CC[C@H]2[C@@H]3[C@H](O)C[C@H]4C[C@@H](NCCCNCCCCN)CC[C@]4(C)[C@H]3CC[C@]12C)OS(=O)(=O)O [squalamine]
formation of αS aggregates (αS [6]): inhibits the formation of αS aggregates | formation of αS aggregates (C. elegans αS model): inhibits the formation of αS aggregates | muscle paralysis / motor dysfunction (C. elegans αS model; C. elegans αS model): reverses motor dysfunction; also recorded: complete reversal of muscle paralysis | effect on gastrointestinal motility (mouse models of PD): stimulates gastro-intestinal motility; also recorded: restores gastrointestinal motility; also recorded: reverse gastrointestinal dysmotility | effect on IPANs [8]: excitation of IPANs | well tolerated dose [9]: at least 300 mg/m^2 | clearance and excretion [10]: cleared by the liver and excreted as the intact molecule | gastrointestinal motility after intravenous administration [11]: not associated with increased gastrointestinal motility
